Source: article PMC11513920, “Building Metabolically Stable and Potent Anti-HIV Thioether-Lipid Analogues of Tenofovir Exalidex: A thorough Pharmacological Analysis” (Journal of Medicinal Chemistry, 2024)

How the values were obtained:
[1] = Mouse liver microsome stability; settings: CD-1, mouse, microsomes
Experimental: Human liver microsomes (HLMs, 20 mg/mL) and CD-1 mouse liver microsomes (MLMs, 20 mg/mL) were purchased from Xenotech. NADPH was purchased from Sigma-Aldrich and prepared in 10 mM stock solutions of distilled H2O (Invitrogen UltraPure). […] Test compounds and positive controls were initially dissolved in MeOH to make 10 mM stock solutions. Sample solutions were then further diluted in 70/30 MeOH/H2O to 500 μM. Next, the reactions were prepared by mixing human or mouse liver microsomes (55 μL) with potassium phosphate buffer (100 mM, 928 μL) in 1.5 mL Eppendorf tubes. The test compounds (6.6 μL of 500 μM solution) were subsequently added to the suspensions, and the reaction mixtures were incubated at 37 °C for 5 min. Afterward, the liver microsome reactions were initiated with 110 μL of 10 mM NADPH and further incubated at 37 °C for the designated time course of the study. […] Each test compound was run in tandem with positive and negative control experiments for quality assurance. Positive control reactions were conducted at a final volume of 550 μL for a single run of each time point.
For both LM and plasma stability assays, each data point was analyzed in duplicate using in-between blank washes to avoid carry over and to equilibrate the column for the subsequent runs. Averages of these duplicate for individual compounds at each time point were then normalized to the data at 0 min, representing 100% test compound remaining or 0% metabolism. Half-lives (t1/2) were calculated by plotting ln of % test compound remaining versus time and performing linear regression to determine slope.
Metabolic Stability Assays
Liver Microsome Stability
Liver Microsome Stability Assay Setup Example
Quenching Mixture: 100 µL MeOH with ISTD (2 µM d5-7-ethoxycoumarin).
Final Volume After Quenching: 200 µL (100 µL from reaction mixture + 100 µL quencher
solution; ISTD final concentration of 1.0 µM).

[2] = Human plasma stability; format: in vitro ADME; settings: for remaining at 4 h, 3 μM / half-life at 3 μM: both sexes, human, plasma; for half-life at 3 μM: 37 °C, 240 min course, read-out: human plasma t1/2
Experimental: Human plasma (lithium heparin (LiHep) mixed, gender pooled, 0.2 μm filtered) and mouse plasma (BALB/C, LiHep mixed, male pooled, 0.2 μm filtered) were purchased from BioIVT. Procaine (Sigma-Aldrich) served as a positive control for both human and mouse plasma experiments. […] Next, the human or mouse plasma (994 μL) was aliquoted into 1.5 mL Eppendorf tubes with duplicates (reactions A and B) being prepared for each compound. The plasma was then incubated at 37 °C for 10 min. […] This procedure provided duplicate experiments with a final volume of 1000 μL (<0.2% organic solvent content) and a final test compound concentration of 3 μM. Aliquots (100 μL) were removed from each reaction mixture at 0, 30, 60, 120, and 240 min time intervals and quenched with 150 μL of cold ISTD solution (2 μM 7-ethoxy-d5-coumarin in MeOH). […] The positive control reaction was conducted at a final volume of 1000 μL for a single run of each time point. Finally, the negative control experiment was conducted with test compounds in Dulbecco’s phosphate buffered saline without calcium and magnesium (DPBS, Fisher Scientific, 143 μL) and analyzed at the 240 min time point.
Plasma Stability Assay Setup Example
Test Compound: 994 µL Human or Mouse Plasma + 6.0 µL TC (500 µM, Vial A).
994 µL Human or Mouse Plasma + 6.0 µL TC (500 µM, Vial B).
Positive Control: 994 µL Human or Mouse Plasma + 6.0 µL Procaine (500 µM).
Negative Control: 142 µL DPBS (1X, pH 7.1-7.3) + 0.9 µL TC (500 µM).
Quenching Mixture: 150 µL MeOH with ISTD (2 µM d5-7-ethoxycoumarin).
Final Volume After Quenching: 250 µL (100 µL from reaction mixture and 150 µL quencher
solution; ISTD final concentration of 1.2 µM).
Human Plasma Stability of Compound 2a at 37 °C
Figure S29. In vitro human plasma stability of 2a (5 points over 240 min) with procaine serving

[3] = test system: HEK293T cells; test: Cellular cytotoxicity (cell viability, CellTiter 96 or resazurin); settings: HEK293T cells, 48 h, compounds formulated with HSA (5:1)
[4] = test system: HepaRG cells; test: HepaRG cellular metabolic stability; settings: for HepaRG t1/2: after 3 h loading at 20 μM, 37 °C
Source text: Naturally, due the metabolic complexity of HepaRG cells, we specifically analyzed prodrug cellular uptake and stability, as represented by Cmax and intrinsic clearance (Clint,u) accordingly (Figure 7 and Table 9).
The HepaRG cell line (HPRGC10, Thermo Fisher Scientific) was used to evaluate the cellular permeability and metabolic stability for select final compounds in vitro. The cells were initially thawed with working media composed of HepaRG Thaw, Plate, & General Purpose Medium Supplement (HPRG670), Williams Medium E (100 mL), and GlutaMax (1 mL), all purchased from Thermo Fisher Scientific. […] After the thawing medium was aspirated from each well, the cells were cultured for an additional 6 days with working media consisting of HepaRG Maintenance/Metabolism Medium Supplement (HPRG720), Williams Medium E (500 mL), and GlutaMax (1 mL), all purchased from Thermo Fisher Scientific. Upon completing the 7-day culture period, HepaRG cells were plated in enough wells to allow for duplicate analysis of prodrugs in two independent cellular uptake or metabolic stability experiments. All studied compounds were formulated with human serum albumin (HSA, 5:1 compound to HSA molar ratio) and subsequently diluted to a 20 μM final concentration with assay medium composed of serum-free INVITROGRO HI Medium and TORPEDO Antibiotic Mix purchased from BioIVT. For cellular uptake determinations, the maintenance/metabolism medium was first aspirated from each well, and then the plated cells were spiked with 1.0 mL of test compound stock solution. Subsequently, the plate was incubated at 37 °C under 5% CO2 environment over the desired time course (seven data points/compound). Blank wells not treated with prodrug were included in assay runs as controls and initial time points (0 min). At each time point, the test compound solution was removed from the appropriate wells, and the plated cells were washed with 1.0 mL of DPBS twice. The HepaRG cells were then extracted with 500 μL of cold ISTD solution (1 μM 7-ethoxy-d5-coumarin in 70/30 MeOH/H2O), and the quenched aliquots were centrifuged at 15,000 g for 10 min at 4 °C. […] After obtaining prodrug Cmax and Tmax values from the cellular uptake assay, HepaRG metabolic stability was then assessed. Following the initial 7-day culture procedure, the maintenance/metabolism medium was aspirated from each well, and the plated cells were spiked with 1.0 mL of test compound stock solution. […] The test compound solution was then removed from each well and replaced with untreated dilution medium (i.e., serum-free INVITROGRO HI Medium and TORPEDO Antibiotic Mix), initializing the stability determination. The HepaRG plate was once more incubated at 37 °C under 5% CO2 atmosphere over the desired time course (nine data points/compound), and sample preparation and analysis were handled in identical fashion to cellular uptake experiments.

[5] = test system: HIV-1 subtype C strain MJ4; test: Single-cycle non-replicating HIV pseudoviral luciferase assay in HEK293T cells; settings: Human immunodeficiency virus 1, HEK-293T, read-out: HIV IC50
Experimental: Second, HIV IC50 and cellular CC50 were determined with a pseudoviral, whole (HEK293T) cell, nonreplicative HIV assay, using the HIV-1 subtype C strain MJ4 (refer to Experimental Methods). To account for the unique amphiphilic properties of TXL and the novel HTP-based prodrugs, all compounds were formulated in a human serum albumin (HSA) solution (5:1 drug:protein).
Assessment of cytotoxicity and antiviral activity of all final compounds in vitro was conducted according to previously reported procedures.[39] In summary, human embryonic kidney (HEK293T) cells maintained in high glucose (25 mM), Dulbecco’s modified Eagle’s medium (DMEM) supplemented with fetal bovine serum (10%), sodium pyruvate (1 mM), L-glutamine (2 mM), HEPES (25 mM), and gentamicin (50 μg/mL) were used for determinations. The cells were maintained in an incubator at 37 °C under 5% CO2 in a humidified atmosphere. For both cytotoxicity and antiviral screening, all compounds were evaluated in duplicate in at least two independent experiments. All final compounds were formulated with human serum albumin (HSA, 5:1 compound to HSA molar ratio) and subsequently diluted with complete DMEM to 200 μM. Fifty microliters of test compound serial dilutions (3-fold) were prepared in 96-well culture plates, after which 50 μL of HEK293T cells (2 × 10^4 cells/well) was added. […] Cytotoxicity was then assessed by quantifying cell viability using the CellTiter 96 Aqueous One Solution Cell Proliferation Assay (Promega, Madison, WI) or resazurin sodium salt (cat# R7017, Merck, Darmstadt, Germany).[61] […] Antiviral activity was then assessed using a single-cycle, nonreplicating, envelope deleted HIV pseudoviral in vitro assay.[62],[63] The assay relies on the introduction of the firefly luciferase gene into HEK293T cells through infection with HIV-like viral particles, containing Reverse Transcriptase (RT) and Integrase (IN) from the HIV-1 subtype C strain MJ4.[64] The expression of the luciferase in the cells is directly proportional to the level of infection by the HIV-like viral particles and can be used to assess the inhibition of HIV-1 RT and IN. To evaluate anti-HIV activity, 3-fold serial dilutions of all final compounds were prepared in 50 μL over the noncytotoxic concentration range (as determined from the cytotoxicity screens described above) in 96-well culture plates. HEK293T cells (2 × 10^4 cells/well) and HIV-like viral particles, standardized to produce a luminescence signal of 1 × 10^6 relative light units (RLUs) in the growth medium only control, were combined, and 50 μL was added to the wells containing serially diluted test compounds. […] The expression of luciferase was subsequently quantified by adding 100 μL of the Bright-Glo Luciferase Assay substrate (Promega, Madison, WI) to each well of the 96-well plates. After incubation at rt for 3 min, luminescence was quantified on the GloMax Explorer Multimode Microplate Reader (Promega, Madison, WI).

[6] = relative percent remaining at 240 min

CCCCCCCCCCCCCCCCSCCCOP(=O)(O)CO[C@H](C)Cn1cnc2c(N)ncnc21.N [2a]
half-life at 3 μM [1]: > 2 h
remaining at 2 h, 3 μM [1]: > 95%
remaining at 4 h, 3 μM [2, 6]: 95%
half-life at 3 μM [2]: > 4 h
human plasma % remaining [2, 6]: > 95%
CC50 [3]: 49.8 ± 2.9 µM

C[C@H](Cn1cnc2c(N)ncnc21)OCP(=O)(O)OCCCSCCCCCCCCCCCCc1ccc(F)cc1.N [16g]
half-life at 3 μM [1]: > 2 h
remaining at 2 h, 3 μM [1]: 88%
remaining at 4 h, 3 μM [2, 6]: > 95%
half-life at 3 μM [2]: > 4 h
HepaRG t1/2 [4]: 0.778 ± 0.005 h
IC50 [5]: 0.008 to 0.012 µM

C[C@H](Cn1cnc2c(N)ncnc21)OCP(=O)(O)OCCCSCCCCCCCCCCCCC1CCCCC1.N [16h]
half-life at 3 μM [1]: > 2 h
remaining at 2 h, 3 μM [1]: > 95%
remaining at 4 h, 3 μM [2, 6]: > 95%
half-life at 3 μM [2]: > 4 h
HepaRG t1/2 [4]: 1.18 ± 0.0067 h
HepaRG Clint,u ([4]; calculated from cellular t1/2): 17.8 μL/min/million cells
CC50 [3]: 47.5 ± 8.7 µM
IC50 [5]: 0.008 to 0.012 µM
